Measurements reported in EPA's ToxValDB 9.5 (doi:10.2903/j.efsa.2013.3352).

Tests used:
Rattus norvegicus = conditions: acute; oral; mortality
Daphnia magna = conditions: chronic/long-term; duration: 21 days; reproduction
Oncorhynchus mykiss = conditions: acute; duration: 96 hours; mortality
Colinus virginianus = conditions: for LD50: acute, oral, mortality
Apis mellifera = conditions: acute, duration: 48 hours, mortality
Oryctolagus sp. = conditions: reproduction developmental
Bibionidae = conditions: chronic/long-term; duration: 28 days; other
Cyprinodon variegatus = conditions: chronic/long-term; duration: 28 days; time to hatch
Typhlodromus pyri = experiment: LR50; higher = less toxic; conditions: chronic/long-term; duration: 14 days; mortality
Aphidius rhopalosiphi = experiment: LR50; higher = less toxic; conditions: acute; duration: 48 hours; mortality

`Nc1cc(Cl)nc(C(=O)O)c1Cl` [4-Amino-3,6-dichloro-2-pyridinecarboxylic acid] gave an LC50 (Tagia sp.; acute, duration: 14 days, mortality) of over 1000 mg/kg, an NOEC (Tagia sp.; chronic/long-term, duration: 8 weeks) of 3.2 mg/kg and an LD50 (Rattus norvegicus) of over 5000 mg/kg-day. The NOEC (Daphnia magna) was 100 mg/L, the LC50 (Oncorhynchus mykiss) was over 100 µg/mL and the LD50 (Colinus virginianus; diet) was over 1460 mg/kg-day. For the same molecule, the LD50 (Colinus virginianus) was over 2250 mg/kg-day, the NOEL (Colinus virginianus; reproduction developmental, reproduction) was 190 mg/kg-day and the LD50 (Apis mellifera; dermal) was over 100 µg/piece. It also gave an LD50 (Apis mellifera; oral, unspecified) of over 120 µg/piece, an NOAEL (Oryctolagus sp.; clinical signs) of 26 mg/kg-day and an NOAEL (Oryctolagus sp.; no effects) of 256 mg/kg-day. The NOEC (Bibionidae) was 130 mg/L, the NOEC (Cyprinodon variegatus) was 0.1 mg/L and the LR50 (Typhlodromus pyri) was over 60 g/ha. The LR50 (Aphidius rhopalosiphi) was over 60 g/ha.
